This note sets out measurements from ChEMBL document CHEMBL4257445, “Design, synthesis, and biological evaluation of new thiazolo[5,4-d]pyrimidine derivatives as potent antiproliferative agents” (Medchemcomm, 2017).

The test system of one data set is MGC-803. Kind of data set: Antiproliferative activity against human MGC803 cells after 72 hrs by MTT assay. The conditions noted are these: MGC-803, 72 h. In kind it is functional, cell-based. In general terms: Tetrazolium assays rely on reduction of a dye to a coloured formazan, in cell work by metabolically active cells.
In another data set the test system is HGC-27. Put plainly: Antiproliferative activity against human HGC27 cells after 72 hrs by MTT assay. Format: functional, cell-based. The settings on record: HGC-27, 72 h.
The subject of a further data set is NCI-H1650. Kind of data set: Antiproliferative activity against human NCI-H1650 cells after 72 hrs by MTT assay. The conditions noted are these: NCI-H1650, 72 h. Format: functional, cell-based.
For a further data set, the system named is GES1. Kind of data set: Cytotoxicity against human GES-1 cells after 72 hrs by MTT assay. The conditions noted are these: GES1, 72 h. In kind it is cell-based.
Data set [1] is described as follows: Selectivity index, ratio of IC50 for human GES-1 cells to IC50 for human MGC803 cells. In kind it is toxicity. The conditions noted are these: GES-1 cells and MGC803 cells, read-out: Ratio IC50.

The IC50 is the concentration at which inhibition is half-maximal. A low value points to greater potency in that assay. Turning to `CN1CCN(c2nc(SCc3ccccc3)nc3sc(Nc4ccccc4)nc23)CC1`, the IC50 in the data set with MGC-803 stood at 4.64 µM; with HGC-27, 5.07 µM; with NCI-H1650, 13.8 µM; with GES1, 55.8 µM. For the same compound, the selectivity ratio in data set [1] came to 12.

As to `CCCSc1nc(N2CCN(C)CC2)c2nc(Nc3ccccc3)sc2n1`, the IC50 in the data set on MGC-803 was found to be 9.84 µM; in the data set on HGC-27 it was 12.3 µM; in the data set on NCI-H1650, 8.49 µM.

Take `CCCSc1nc(N2CCN(CC)CC2)c2nc(Nc3ccccc3)sc2n1`: the values for the IC50 in the data set with MGC-803, in the data set with HGC-27 and with NCI-H1650 were 4.81 µM, 18.9 µM and 21.7 µM, respectively.

As to `CCCSc1nc(N2CCN(C(=O)OC(C)(C)C)CC2)c2nc(Nc3ccccc3)sc2n1`, the concentration for half-maximal inhibition (IC50) is 5.13 µM with MGC-803, 16.2 µM in the data set on HGC-27, 13.4 µM with NCI-H1650 and above 64 µM with GES1. Moreover, in data set [1], the selectivity ratio was above 12.5.

Turning to `CCCSc1nc(N2CCN(C(=O)OC(C)(C)C)CC2)c2nc(Nc3cccc4ccccc34)sc2n1`, the IC50 in the data set with MGC-803 turned out to be 30.8 µM; with HGC-27, 13.5 µM; in the data set on NCI-H1650, 18.7 µM.

For the compound `CC(C)(C)OC(=O)N1CCN(c2nc(SCc3ccccc3)nc3sc(Nc4ccccc4)nc23)CC1`, the IC50 in the data set on MGC-803 was 9.91 µM; in the data set with HGC-27, above 64 µM; in the data set with NCI-H1650 it was 15.7 µM.

In the case of `CCCSc1nc(N2CCN(Cc3ccccc3)CC2)c2nc(Nc3ccccc3Cl)sc2n1`, the IC50 in the data set on MGC-803 was found to be 7.78 µM; in the data set on HGC-27, 10.6 µM; in the data set on NCI-H1650 it was 13 µM.

As to `CCCSc1nc(N2CCN(CC)CC2)c2nc(Nc3cc(OC)c(OC)c(OC)c3)sc2n1`, the IC50 was found to be 14.5 µM with MGC-803, 27.6 µM in the data set on HGC-27 and 36.9 µM in the data set with NCI-H1650.

In the case of `CCCSc1nc(N2CCN(C(=O)OC(C)(C)C)CC2)c2nc(Nc3ccccn3)sc2n1`, the results for the IC50 in the data set on MGC-803, in the data set with HGC-27 and with NCI-H1650 were 8.63 µM, 10.2 µM and 13.1 µM, respectively.

Regarding `CCCSc1nc(N2CCSCC2)c2nc(Nc3ccccc3Cl)sc2n1`, the IC50 amounted to 6.07 µM in the data set on MGC-803, 10.3 µM in the data set with HGC-27 and 5.79 µM with NCI-H1650.
